The values that follow come from article PMC9448872 (Frontiers in Cell and Developmental Biology, 2022).

The test system of series [1] is αvβ6 endocytosis in C76 cells. The series is described as follows: Flow cytometry internalisation assay using TCEP reduction in C76 cells (inhibitors, siRNA). Type of series: cell-based. The arrangement: internalisation of A20FMDV2 with Clathrin inhibitor: concentration or dose not given beside the values. For orientation: A flow cytometer gives signals particle by particle.

Series [2] deals with C76 cells. Put plainly: Transwell migration assay. Particulars: Transwells coated with 0.5 μg/ml LAP, 16 h, vehicle control 547 ± 128, p < 0.05.
Series [3] has as its target T1, αvβ6 (Homo sapiens, UniProt P06756+P18564).
T1 construct: endogenous in cells; host or cells: panel of breast, pancreas and lung cell lines (C76, C102, C139, H322M, H441, H358, MCF10A, MCF10CA1α, MDAMB468, BT20, HPDE, NHBE)
Particulars: cited from earlier work.

Series [4] has as its system C76 cells. Put plainly: Cell viability by flow cytometry and DAPI uptake. The format is cell-based. Particulars: 500nM of TCEP, DAPI uptake, mean, n = 2 (95% without TCEP).
Series [5] relates to FMDV. Particulars: cited from earlier work.

T1 sequence (P06756 31-889 limits assumed): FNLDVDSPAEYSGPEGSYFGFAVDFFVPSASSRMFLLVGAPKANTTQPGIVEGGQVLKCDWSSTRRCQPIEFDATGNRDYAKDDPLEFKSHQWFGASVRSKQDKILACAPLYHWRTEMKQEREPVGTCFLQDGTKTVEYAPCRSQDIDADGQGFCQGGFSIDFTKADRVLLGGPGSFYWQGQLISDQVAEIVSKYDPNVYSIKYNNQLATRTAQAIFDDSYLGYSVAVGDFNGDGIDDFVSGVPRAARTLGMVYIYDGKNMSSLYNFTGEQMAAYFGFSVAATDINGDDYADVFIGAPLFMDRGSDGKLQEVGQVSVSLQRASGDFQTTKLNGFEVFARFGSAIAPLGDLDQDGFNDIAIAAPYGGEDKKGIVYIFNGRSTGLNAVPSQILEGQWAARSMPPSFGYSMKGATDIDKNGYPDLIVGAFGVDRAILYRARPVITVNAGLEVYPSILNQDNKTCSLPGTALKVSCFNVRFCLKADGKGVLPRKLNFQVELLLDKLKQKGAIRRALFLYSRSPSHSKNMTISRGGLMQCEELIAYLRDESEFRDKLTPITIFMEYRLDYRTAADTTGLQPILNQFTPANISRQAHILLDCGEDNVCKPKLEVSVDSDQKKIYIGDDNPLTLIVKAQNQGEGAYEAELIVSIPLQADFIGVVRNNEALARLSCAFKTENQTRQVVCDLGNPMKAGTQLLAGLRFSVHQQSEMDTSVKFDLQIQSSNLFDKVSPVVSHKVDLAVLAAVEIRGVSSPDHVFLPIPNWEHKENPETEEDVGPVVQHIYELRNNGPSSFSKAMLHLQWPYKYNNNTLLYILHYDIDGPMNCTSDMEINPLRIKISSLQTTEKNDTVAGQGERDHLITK
T1 sequence (P06756 891-1048 limits assumed): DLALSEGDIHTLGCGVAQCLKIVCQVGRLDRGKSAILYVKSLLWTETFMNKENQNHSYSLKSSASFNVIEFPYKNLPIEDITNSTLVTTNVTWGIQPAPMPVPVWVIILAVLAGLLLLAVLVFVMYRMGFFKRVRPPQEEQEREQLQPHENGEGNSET
T1 sequence (P18564 22-788): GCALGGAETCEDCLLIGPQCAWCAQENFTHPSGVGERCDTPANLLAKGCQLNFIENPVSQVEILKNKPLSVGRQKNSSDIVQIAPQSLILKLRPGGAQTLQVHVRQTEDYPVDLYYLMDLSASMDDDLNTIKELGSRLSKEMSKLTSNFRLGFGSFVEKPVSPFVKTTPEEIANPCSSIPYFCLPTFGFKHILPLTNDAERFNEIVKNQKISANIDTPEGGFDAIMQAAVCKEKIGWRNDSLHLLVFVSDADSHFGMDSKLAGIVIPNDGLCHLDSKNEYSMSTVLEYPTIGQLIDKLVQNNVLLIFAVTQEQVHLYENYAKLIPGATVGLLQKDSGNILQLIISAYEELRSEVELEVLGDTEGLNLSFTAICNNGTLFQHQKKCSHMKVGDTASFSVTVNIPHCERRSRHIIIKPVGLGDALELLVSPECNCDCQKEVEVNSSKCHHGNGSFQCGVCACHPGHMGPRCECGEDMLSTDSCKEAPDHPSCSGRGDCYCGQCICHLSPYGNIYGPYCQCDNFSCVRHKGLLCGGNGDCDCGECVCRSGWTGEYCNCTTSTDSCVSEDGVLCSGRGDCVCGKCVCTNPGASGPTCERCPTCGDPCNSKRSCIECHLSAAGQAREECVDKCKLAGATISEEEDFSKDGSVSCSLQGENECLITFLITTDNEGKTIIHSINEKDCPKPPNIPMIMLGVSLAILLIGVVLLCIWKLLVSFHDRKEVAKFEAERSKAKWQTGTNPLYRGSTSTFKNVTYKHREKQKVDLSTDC

For `CN(C)CCCN1c2ccccc2Sc2ccc(Cl)cc21` [Chlorpromazine], the “internalisation of αvβ6-bound Cy5-SS-(GS)5-bioA20FMDV2 with clathrin inhibitor” value in series [1] (C76 cells pre-treated with 2 ug/ml Chlorpromazine, 20 min, n = 3, p < 0.05) was found to be 39 ± 2.5%. Moreover, the “internalisation of A20FMDV2 with Clathrin inhibitor” value in series [1] (C76 cells, ARFGAP siRNA knockdown + clathrin inhibitor, n = 3) is given as 6.2 ± 3.5%; in series [1] (C76 cells, ASAP siRNA knockdown + clathrin inhibitor, n = 3) it was 9.4 ± 9.9%; in series [1] (C76 cells, CBL siRNA knockdown + clathrin inhibitor, n = 3), 14 ± 8%; in series [1] (C76 cells, CBLB siRNA knockdown + clathrin inhibitor, n = 3) it was 7.4 ± 3.9%; in series [1] (C76 cells, CYTH2 siRNA knockdown + clathrin inhibitor, n = 3), 13 ± 11.7%; in series [1] (C76 cells, non-targeting (NT) siRNA + chlorpromazine, n = 3, not significant), 14 ± 6.5%. For the same compound, in series [2], the “number of cells migrating towards LAP” value stood at 225 ± 73.
With `CCCCC[C@@H](O)[C@H]1C(=O)O[C@H](C)[C@@H](O)/C=C/C=C/C=C/C=C/C=C(\C)[C@@H](O)C[C@H](O)C[C@H](O)C[C@H](O)C[C@H](O)C[C@H](O)C[C@@H]1O` [Filipin], in series [1] (C76 cells pre-treated with 10 ug/ml Filipin, n = 3, p < 0.05), the “internalisation of αvβ6-bound Cy5-SS-(GS)5-bioA20FMDV2 with caveolin inhibitor” value was found to be 19.7 ± 3.9%. Further, the “reduction in the number of cells with internalised αVβ6-A20FMDV2” value in series [1] (C76 cells, caveolin inhibited (Filipin)) came out at 41%. Also, the “reduction in αvβ6 internalisation with caveolin inhibitor” value in series [3] is listed as “not statistically significant”. The “number of cells migrating towards LAP” value in series [2] worked out at 280 ± 51.
On to `O=C(O)CCP(CCC(=O)O)CCC(=O)O` [TCEP, tris(2-carboxyethyl)phosphine], for which the cells viable in series [4] is recorded as 68%.
Take `OC[C@H]1O[C@@](CO)(O[C@H]2O[C@H](CO)[C@@H](O)[C@H](O)[C@H]2O)[C@@H](O)[C@@H]1O` [sucrose]: the “reduction of αvβ6 dependent FMDV infection” value in series [5] is on record as 95%.
